Source: PubChem BioAssay AID463204 (Broad Institute, 2010)
Calls of active or inactive are those of the source.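 Rule for the calls: active = AC50 no more than ten times the top concentration tested, that is within one log above it; inconclusive = flat curve fit with activity between 30% and 70%, or invalid poor fit; inactive = AC50 beyond ten times the top tested dose.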

Test system: S. cerevisiae Mot1-301 ts growth rescue, BacTiter-Glo ATP luminescence
Assay: restored Mot1-301 yeast growth at 38.5C – whole organism, S. cerevisiae, Mot1-301 ts mutant, luminescence, dose retest, SUMOylation pathway inhibitor project, confirmation (AID 463204);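 note: growth at restrictive 38.5 degrees C of Mot1-301 OY566 strain; actives raise luminescence by restoring growth of the ts mutant at high temperature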

| Structure (SMILES) | AC50 |
| --- | --- |
| Cc1ccc(N2CN(CCc3ccccc3)CNC2=S)cc1 | > 42 µM (inactive) |
| N#C/C(=C\c1c(N(Cc2ccccc2)Cc2ccccc2)nc2ccccn2c1=O)C(N)=O | > 42 µM (inactive) |
| COCCNC(=O)C(=O)NCC1OCCN1C(=O)c1ccc(Cl)cc1 (stereo unspecified) | > 42 µM (inactive) |
| Cc1ccc(/C=C/C(=O)c2ccc([N+](=O)[O-])o2)cc1 | 3.5 µM |
| CC1(C)CC(=O)C(CC2CCCCC2=O)C(=O)C1 (stereo unspecified) | > 42 µM (inactive) |
| CCOC(=O)c1ccc(NC(=O)c2c(NC(=O)CCC(=O)O)sc3c2CCCCC3)cc1 | > 42 µM (inactive) |
| CCn1cc(C(=O)NCc2ccccn2)c(=O)c2cc(F)c(N3CCN(C)CC3)cc21 | > 42 µM (inactive) |
| Cc1ccc(S(=O)(=O)Cc2ccc(C(=O)N3CCN(c4ccccn4)CC3)o2)cc1 | > 42 µM (inactive) |
| Cc1ccc(S(=O)(=O)n2cccc2C)cc1 | > 42 µM (inactive) |
| Cc1nc(-c2ccncc2)sc1C(=O)Nc1ccc(Br)cc1 | > 42 µM (inactive) |
| O=C1CCN(Cc2ccccc2)CCN1CCOc1ccccc1 | > 42 µM (inactive) |
| O=C(COC(=O)CSc1ccc([N+](=O)[O-])cc1)NC1CCCCCCC1 | > 42 µM (inactive) |
| Cn1cc(C(=O)Cc2ccccc2)c2ccccc21 | > 42 µM (inactive) |
| CCOC(=O)c1sc(NC(=O)CSc2n[nH]c(-c3ccc(Cl)cc3Cl)n2)c(C#N)c1C | > 42 µM (inactive) |
| CCOC(=O)c1ccc(CNC(=O)Cn2nnc(-c3ccc(C)cc3)n2)o1 | > 42 µM (inactive) |
| O=C(COc1ccccc1)NCCS(=O)(=O)N1CCN(c2ccccc2)CC1 | > 42 µM (inactive) |
| COc1ccc(-c2c(C)nn3c(C)cc(C)nc23)cc1 | > 42 µM (inactive) |
| COC(=O)Oc1ccc(/C=N/NS(=O)(=O)c2ccccc2)cc1OC | > 42 µM (inactive) |
| CCC(CC)C(=O)Nc1ccc(S(=O)(=O)Nc2nccs2)cc1 | > 42 µM (inactive) |
| CN(C)CCNC(=O)c1c(O)c2c([nH]c1=O)CCCC2 | > 42 µM (inactive) |
| CCCCC(=O)Nc1nnc(/C=C/c2ccc(OC)cc2)s1 | > 42 µM (inactive) |
| COc1ccc(-n2c(SCC(=O)NCC3CCCO3)nc3c(c2=O)SCC3)cc1OC (stereo unspecified) | > 42 µM (inactive) |
| O=c1cnc2cc([N+](=O)[O-])ccc2[nH]1 | > 42 µM (inactive) |
| CCOC(=O)c1ccc(CNC(=O)C2CCCCC2C(=O)OCC(F)(F)F)o1 (stereo unspecified) | > 42 µM (inactive) |
| Cc1ccccc1-n1ncc2c([N+](=O)[O-])cc([N+](=O)[O-])cc21 | 5.35 µM |
| Cn1c(CCN2CCOCC2)nc2cc(NC(=O)COc3ccccc3)ccc21 | > 42 µM (inactive) |

| Structure (SMILES) | AC50 |
| --- | --- |
| O=C(Cn1sc2ccccc2c1=O)NC12CC3CC(CC(C3)C1)C2 | 20.7 µM |
| C=C(C)C(=O)OC1(C(F)(F)F)Oc2cc(C)ccc2NC1=O (stereo unspecified) | 4.67 µM |
| c1ccc(-c2cc3ccccc3cn2)cc1 | 35 µM |
| COc1ccccc1CNc1ncnc2nc[nH]c12 | > 42 µM (inactive) |
| CCOC(=O)Nc1sc(=S)n(C)c1C | > 42 µM (inactive) |
| Cc1ccccc1OCc1nc(-c2ccccc2)no1 | > 42 µM (inactive) |
| O=C(NNC(=O)c1ccc(-n2cncn2)c([N+](=O)[O-])c1)c1ccc(Cl)cc1 | > 42 µM (inactive) |
| CCN1CCCC1CNC(=O)Cn1cnc2ccc(S(=O)(=O)N3CCC(C)CC3)cc2c1=O (stereo unspecified) | > 42 µM (inactive) |
| Cn1c(CSc2nc3ccccc3s2)nnc1SCC(=O)NCCN1CCOCC1 | > 42 µM (inactive) |
| O=C(O)CC(NC(=O)OCc1ccccc1)c1ccc(Br)cc1 (stereo unspecified) | > 42 µM (inactive) |
| O=C(OCc1ccccc1)c1cccc(-c2nnn(Cc3ccccc3)n2)c1 | > 42 µM (inactive) |
| O=C(CSc1nnc2ccccn12)NNC(=O)c1ccc(Cl)cc1 | > 42 µM (inactive) |
| COc1ccc(C(=O)Nn2c(SCC(=O)NCc3ccccc3)nc3ccccc3c2=O)cc1 | > 42 µM (inactive) |
| CNS(=O)(=O)c1cccc(C(=O)NCC2(N3CCCCC3)CCCCC2)c1 | 39.2 µM |
| Cc1ccc(-n2c(-c3ccco3)nc3c(cnn3-c3ccc(C)cc3)c2=O)cc1 | > 42 µM (inactive) |
| Cc1ccc(NS(=O)(=O)c2cc(C(=O)Nc3cccc([N+](=O)[O-])c3)ccc2C)cc1 | > 42 µM (inactive) |
| O=C(Nc1ccc([N+](=O)[O-])cn1)c1ccc2c(c1)OCO2 | > 42 µM (inactive) |
| CCOc1ccccc1C(=O)N(Cc1cccs1)C1CCS(=O)(=O)C1 (stereo unspecified) | > 42 µM (inactive) |
| CN1CCCCC1=NCCCn1cnc2c1c(=O)n(C)c(=O)n2C | > 42 µM (inactive) |
| CN(C)c1ccc(NS(=O)(=O)c2cccc(Cl)c2)cc1 | > 42 µM (inactive) |
| COc1ccc2c(c1)OC[C@H]1[C@H]2N2C(=O)c3cc(OC)c(OC)cc3NC(=O)[C@@]2(C)[C@H]1c1ccccc1 | 5.49 µM |
| Cc1cccc(C)c1NC(=O)C(Cl)C(=O)c1ccccc1 (stereo unspecified) | 0.68 µM |
| Nc1cc[n+](CC(=O)Nc2ccccc2)cc1 | > 42 µM (inactive) |
| CN(C)c1ccc(CN(Cc2ccco2)C(=O)c2ccco2)cc1 | > 42 µM (inactive) |
| COC(=O)CNC(=O)CSc1ccccn1 | > 42 µM (inactive) |
| CCC(C)NC(=O)CSc1nnc(-c2cc(-c3ccc(C)cc3)nc3ccccc23)n1N (stereo unspecified) | > 42 µM (inactive) |

| Structure (SMILES) | AC50 |
| --- | --- |
| Cc1nnc(N=c2ssnc2Cl)o1 | 3.31 µM |
| CCN1CCN(C(=O)c2ccc3nc(-c4ccccc4)c(-c4ccccc4)nc3c2)CC1 | > 42 µM (inactive) |
| CN(CP(=O)(O)C(O)c1ccccc1)S(C)(=O)=O (stereo unspecified) | > 42 µM (inactive) |
| Cc1ccc(CN(C)C(=O)c2ccc3c(c2)NC(=O)CS3)o1 | > 42 µM (inactive) |
| O=C(CSc1nc2ccc(Cl)cc2[nH]1)NCc1ccco1 | > 42 µM (inactive) |
| CSc1nncc(/C(C)=N\Nc2cccc(C)c2)n1 | > 42 µM (inactive) |
| CCOC(=O)Cn1c(C)c(Br)c(=O)c2cccc(C)c21 | > 42 µM (inactive) |
| CCC(CC)NC(=O)c1oc2ccccc2c1COc1ccccc1 | > 42 µM (inactive) |
| COc1ccccc1-n1c(O)c(/C=C2\C=Nc3ccccc32)c(=O)[nH]c1=O | > 42 µM (inactive) |
| COc1ccc2c(c1)[C@H]1[C@H](CO2)[C@H](c2ccccc2)[C@]2(C)C(=O)Nc3ccc(C)cc3C(=O)N12 | > 42 µM (inactive) |
| CC(C)c1ccc(-c2cc(C(=O)N3CCOCC3)c3cc(Br)ccc3n2)cc1 | > 42 µM (inactive) |
| O=C(CCNC(=O)c1ccccc1)Nc1cccnc1 | > 42 µM (inactive) |
| Cc1ccc(CC2CC(=O)N(c3ccc4c(c3)OCCO4)C2=O)cc1 (stereo unspecified) | > 42 µM (inactive) |
| NC(=O)C1CCN(C2CC(=O)N(c3ccc(F)c(Cl)c3)C2=O)CC1 (stereo unspecified) | 7.8 µM |
| COc1ccc(C(=O)NCCSc2ccc(C)cc2)cc1 | > 42 µM (inactive) |
| Cc1ccc2nc3c(cc(C(=O)NCCN4CCOCC4)c(=N)n3CCCN3CCOCC3)c(=O)n2c1 | > 42 µM (inactive) |
| Cc1ccccc1NC(=O)c1ccccc1NC(=O)c1ccco1 | > 42 µM (inactive) |
| c1ccc(-c2csc(NC3CCCCC3)n2)cc1 | > 42 µM (inactive) |
| CCCNC(=O)CN(c1ccc(F)cc1)S(=O)(=O)c1ccc2c(c1)OCCO2 | > 42 µM (inactive) |
| O=C(CN1CCc2ccccc21)NN1CC(=O)N(c2ccc(Cl)cc2)CC1=O | > 42 µM (inactive) |
| COc1cccc(C2CC(c3cccc(NS(C)(=O)=O)c3)=NN2C(=O)c2ccccc2)c1OC (stereo unspecified) | > 42 µM (inactive) |
| Cc1nc2ccccc2c(=O)n1CC(=O)N1CCOCC1 | > 42 µM (inactive) |
| COCC(=O)NNC(=O)c1ccccc1OC | > 42 µM (inactive) |
| O=C(C1CCCN(S(=O)(=O)c2cnc[nH]2)C1)N1CCN(c2ccc(Cl)cc2)CC1 (stereo unspecified) | > 42 µM (inactive) |
| Fc1cccc(Cl)c1CSc1nnc(CN2CCOCC2)n1-c1ccccc1 | > 42 µM (inactive) |
| CCN(CC)CCCN(Cc1cc2cc(OC)ccc2[nH]c1=O)C(=O)Nc1ccc(F)cc1 | > 42 µM (inactive) |

| Structure (SMILES) | AC50 |
| --- | --- |
| CCn1cc(CCCC(=O)NCc2ccccc2OC)c2ccccc21 | > 42 µM (inactive) |
| CCCCc1n[nH]c(=S)n1Cc1ccc(C)cc1 | > 42 µM (inactive) |
| CC(=O)Nc1cccc(NC(=S)Nc2ccc(F)cc2F)c1 | > 42 µM (inactive) |
| COc1ccc(S(=O)(=O)NC(C)C(=O)NCc2ccccn2)cc1Cl (stereo unspecified) | > 42 µM (inactive) |
| CCc1ccc2nc(-c3cccc(C)c3)nc(SCC(=O)NCC3CCCO3)c2c1 (stereo unspecified) | > 42 µM (inactive) |
| Cc1ccc(S(=O)(=O)NN2C(=O)c3ccccc3NC2c2ccccc2F)cc1 (stereo unspecified) | > 42 µM (inactive) |
| CN(C)C(=O)CSc1nc2ccc(N3C(=O)c4ccccc4C3=O)cc2s1 | > 42 µM (inactive) |
| CCCCNS(=O)(=O)c1ccc2c(c1)oc(=O)n2CC(=O)OCC | > 42 µM (inactive) |
| Cc1cccc(N2C(=O)/C(=C/c3cccnc3)SC2=S)c1 | > 42 µM (inactive) |
| COCCCNS(=O)(=O)c1ccc(Oc2ncc(C(F)(F)F)cc2Cl)cc1 | > 42 µM (inactive) |
| CN(C(=O)c1ccncc1)c1nnc(-c2cnccn2)s1 | > 42 µM (inactive) |
| CN(C)S(=O)(=O)c1cc(NC(=O)CSc2nn(-c3ccc(Cl)cc3)c(=S)s2)ccc1Cl | 31.1 µM |
| CN1C(=O)C(=Cc2cn(CC(=O)N3CCCC3)c3ccccc23)C(=O)N(C)C1=O | > 42 µM (inactive) |
| Cc1cccc(CS(=O)(=O)Cc2ccc(C(=O)NCC3CCCO3)o2)c1 (stereo unspecified) | > 42 µM (inactive) |
| Oc1c(Cl)cc(Cl)cc1/C=N/c1nc(-c2ccc(Cl)cc2)cs1 | 34.1 µM |
| Cc1cc2c(cc1C)-c1nnc(-c3ccc4ccccc4n3)n1C(C)(C)C2 | > 42 µM (inactive) |
| Cc1ccc(S(=O)(=O)N2[C@@H](c3ccccc3)C(C(=O)O)=CC[C@H]2c2ccc(Cl)cc2)cc1 | 8.57 µM |
| COc1ccc2c(c1)c(CC(=O)OCC(N)=O)c(C)n2C(=O)c1ccc(Cl)cc1 | > 42 µM (inactive) |
| COc1cc(/C=N/NC(=O)c2ccncc2)ccc1OC(=O)c1ccco1 | > 42 µM (inactive) |
| COC(=O)c1cc(Cl)c(NC(=O)C(C)C)cc1OC | > 42 µM (inactive) |
| CCOC(=O)N1CCN(C(=O)c2ccccc2-c2ccccc2)CC1 | > 42 µM (inactive) |
| CCNC(=S)NNC(=O)c1ccc(=O)n(Cc2ccccc2)c1 | > 42 µM (inactive) |
| N/C(=N\NC(=O)c1sccc1OCc1ccc(Cl)cc1Cl)c1ccccn1 | > 42 µM (inactive) |
